# Measurements as given in patent US20140329863A1 (priority 2011, published 2014).
# System: PrP^C in IMR32 cells
# Assay: not given
# Type: cell-based, human
# Settings: not given
row,SMILES,% Inhibition: SPC (IMR32)
1,COc1ccc(NC(=O)Nc2ccc(SC(F)(F)F)cc2)cc1 [IND-0002925],MW: 342.3 % Inhibition: SPC (IMR32): 22 Calcein: 13 SPC (T98G): 62 Calcein: −10
2,CC(C)(C)NCC(O)COc1ccc(C23CC4CC(CC(C4)C2)C3)cc1 (stereo not shown) [IND-0003070],MW: 285.4 % Inhibition: SPC (IMR32): 94 Calcein: 34 SPC (T98G): −55 Calcein: −13
3,COc1ccc(S(=O)(=O)Nc2cc(C)ccc2C)cc1 [IND-0007902],MW: 291.4 % Inhibition: SPC (IMR32): 38 Calcein: 36 SPC (T98G): 51 Calcein: 19
4,Cc1nc2sccn2c1-c1csc(Nc2ccc(N(C)C)cc2)n1 [IND-0009688],MW: 288.8 % Inhibition: SPC (IMR32): 66 Calcein: 38 SPC (T98G): 31 Calcein: 8
5,Cc1[nH]c2ccccc2c1-c1ccnc2ccccc12 [IND-0010878],MW: 318.4 % Inhibition: SPC (IMR32): 34 Calcein: 19 SPC (T98G): 64 Calcein: 25
6,Cc1cc(C)c(S(=O)(=O)NCc2ccccc2)c(C)c1 [IND-0014135],MW: 289.4 % Inhibition SPC (IMR32): 55 Calcein: 4 SPC (T98G): 39 Calcein: 9
7,OCCNC1CCCc2c1[nH]c1ccc(Br)cc21 (stereo not shown) [IND-0015066],MW: 309.2 % Inhibition: SPC (IMR32): 45 Calcein: 2 SPC (T98G): −11 Calcein: −27
8,CC(=O)N1CCc2c([nH]c3ccccc23)C1c1ccc(Cl)cc1 (stereo not shown) [IND-0017998],MW: 324.8 % Inhibition: SPC (IMR32): 73 Calcein: 7 SPC (T98G): 74 Calcein: −19

# System: not given
# Assay: not given
# Settings: not given
row,SMILES,melting point [°C]
1,"CNc1nc(-c2ccc(OC)c(OC)c2)cs1 [compound 5, 4-(3,4-dimethoxyphenyl)-N-methyl-1,3-thiazol-2-amine]",120 to 123

# System: PrP^C in T98G cells
# Assay: not given
# Type: cell-based, human
# Settings: not given
row,SMILES,% Inhibition: SPC (T98G)
1,COc1ccc(NC(=O)Nc2ccc(SC(F)(F)F)cc2)cc1 [IND-0002925],MW: 342.3 % Inhibition: SPC (IMR32): 22 Calcein: 13 SPC (T98G): 62 Calcein: −10
2,CC(C)(C)NCC(O)COc1ccc(C23CC4CC(CC(C4)C2)C3)cc1 (stereo not shown) [IND-0003070],MW: 285.4 % Inhibition: SPC (IMR32): 94 Calcein: 34 SPC (T98G): −55 Calcein: −13
3,COc1ccc(S(=O)(=O)Nc2cc(C)ccc2C)cc1 [IND-0007902],MW: 291.4 % Inhibition: SPC (IMR32): 38 Calcein: 36 SPC (T98G): 51 Calcein: 19
4,Cc1nc2sccn2c1-c1csc(Nc2ccc(N(C)C)cc2)n1 [IND-0009688],MW: 288.8 % Inhibition: SPC (IMR32): 66 Calcein: 38 SPC (T98G): 31 Calcein: 8
5,Cc1[nH]c2ccccc2c1-c1ccnc2ccccc12 [IND-0010878],MW: 318.4 % Inhibition: SPC (IMR32): 34 Calcein: 19 SPC (T98G): 64 Calcein: 25
6,Cc1cc(C)c(S(=O)(=O)NCc2ccccc2)c(C)c1 [IND-0014135],MW: 289.4 % Inhibition SPC (IMR32): 55 Calcein: 4 SPC (T98G): 39 Calcein: 9
7,OCCNC1CCCc2c1[nH]c1ccc(Br)cc21 (stereo not shown) [IND-0015066],MW: 309.2 % Inhibition: SPC (IMR32): 45 Calcein: 2 SPC (T98G): −11 Calcein: −27
8,CC(=O)N1CCc2c([nH]c3ccccc23)C1c1ccc(Cl)cc1 (stereo not shown) [IND-0017998],MW: 324.8 % Inhibition: SPC (IMR32): 73 Calcein: 7 SPC (T98G): 74 Calcein: −19

# System: IMR32 cells
# Assay: not given
# Type: cell-based, human
# Settings: not given
row,SMILES,% Inhibition: Calcein (IMR32) [%]
1,COc1ccc(NC(=O)Nc2ccc(SC(F)(F)F)cc2)cc1 [IND-0002925],13
2,CC(C)(C)NCC(O)COc1ccc(C23CC4CC(CC(C4)C2)C3)cc1 (stereo not shown) [IND-0003070],34
3,COc1ccc(S(=O)(=O)Nc2cc(C)ccc2C)cc1 [IND-0007902],36
4,Cc1nc2sccn2c1-c1csc(Nc2ccc(N(C)C)cc2)n1 [IND-0009688],38
5,Cc1[nH]c2ccccc2c1-c1ccnc2ccccc12 [IND-0010878],19
6,Cc1cc(C)c(S(=O)(=O)NCc2ccccc2)c(C)c1 [IND-0014135],4
7,OCCNC1CCCc2c1[nH]c1ccc(Br)cc21 (stereo not shown) [IND-0015066],2
8,CC(=O)N1CCc2c([nH]c3ccccc23)C1c1ccc(Cl)cc1 (stereo not shown) [IND-0017998],7

# System: PrP^Sc in dividing ScN2a-c13 cells
# Assay: not given
# Settings: dividing ScN2a-c13 cells
row,SMILES,antiprion activity (in words)
1,"CNc1nc(-c2ccc(OC)c(OC)c2)cs1 [compound 5, 4-(3,4-dimethoxyphenyl)-N-methyl-1,3-thiazol-2-amine]",without significant activity

# System: PrP^Sc in nondividing ScN2a-cl3 cells
# Assay: not given
# Type: cell-based, mouse
# Settings: read-out: Non-Dividing ELISA EC50 (μM) Mean (n = 3); ScN2a-c13 non-dividing cells; mean n = 3
row,SMILES,EC50 [µM]
1,"CNc1nc(-c2ccc(OC)c(OC)c2)cs1 [compound 5, 4-(3,4-dimethoxyphenyl)-N-methyl-1,3-thiazol-2-amine]",> 32

# System: T98G cells
# Assay: cells
# Type: cell-based, human
# Settings: calcein, T98G cells
row,SMILES,% Inhibition: Calcein (T98G) [%]
1,COc1ccc(NC(=O)Nc2ccc(SC(F)(F)F)cc2)cc1 [IND-0002925],−10
2,CC(C)(C)NCC(O)COc1ccc(C23CC4CC(CC(C4)C2)C3)cc1 (stereo not shown) [IND-0003070],−13
3,COc1ccc(S(=O)(=O)Nc2cc(C)ccc2C)cc1 [IND-0007902],19
4,Cc1nc2sccn2c1-c1csc(Nc2ccc(N(C)C)cc2)n1 [IND-0009688],8
5,Cc1[nH]c2ccccc2c1-c1ccnc2ccccc12 [IND-0010878],25
6,Cc1cc(C)c(S(=O)(=O)NCc2ccccc2)c(C)c1 [IND-0014135],9
7,OCCNC1CCCc2c1[nH]c1ccc(Br)cc21 (stereo not shown) [IND-0015066],−27
8,CC(=O)N1CCc2c([nH]c3ccccc23)C1c1ccc(Cl)cc1 (stereo not shown) [IND-0017998],−19

# System: PrP^Sc in dividing ScN2a-cl3 cells
# Assay: not given
# Type: cell-based, mouse
# Parameters: Dividing ELISA pEC50 (μM) 1st Expt. / Dividing ELISA pEC50 (μM) 2nd Expt. / Dividing ELISA pEC50 (μM) 3rd Expt. / Dividing ELISA pEC50 (μM) Mean: unit not given here
# Settings: ScN2a-cl3 dividing cells; 1st determination
row,SMILES,Dividing ELISA pEC50 (μM) 1st Expt.
1,"CNc1nc(-c2ccc(OC)c(OC)c2)cs1 [compound 5, 4-(3,4-dimethoxyphenyl)-N-methyl-1,3-thiazol-2-amine]",>4.5

# Same assay, conditions: ScN2a-cl3 dividing cells; 2nd determination
row,SMILES,Dividing ELISA pEC50 (μM) 2nd Expt.
1,"CNc1nc(-c2ccc(OC)c(OC)c2)cs1 [compound 5, 4-(3,4-dimethoxyphenyl)-N-methyl-1,3-thiazol-2-amine]",>4.5

# Same assay, conditions: ScN2a-cl3 dividing cells; 3rd determination
row,SMILES,Dividing ELISA pEC50 (μM) 3rd Expt.
1,"CNc1nc(-c2ccc(OC)c(OC)c2)cs1 [compound 5, 4-(3,4-dimethoxyphenyl)-N-methyl-1,3-thiazol-2-amine]",>4.5

# Same assay, conditions: read-out: Dividing ELISA EC50 (μM) 1st Expt.; ScN2a-cl3 dividing cells; 1st determination
row,SMILES,EC50 [µM]
1,"CNc1nc(-c2ccc(OC)c(OC)c2)cs1 [compound 5, 4-(3,4-dimethoxyphenyl)-N-methyl-1,3-thiazol-2-amine]",> 32

# Same assay, conditions: read-out: Dividing ELISA EC50 (μM) 2nd Expt.; ScN2a-cl3 dividing cells; 2nd determination
row,SMILES,EC50 [µM]
1,"CNc1nc(-c2ccc(OC)c(OC)c2)cs1 [compound 5, 4-(3,4-dimethoxyphenyl)-N-methyl-1,3-thiazol-2-amine]",> 32

# Same assay, conditions: read-out: Dividing ELISA EC50 (μM) 3rd Expt.; ScN2a-cl3 dividing cells; 3rd determination
row,SMILES,EC50 [µM]
1,"CNc1nc(-c2ccc(OC)c(OC)c2)cs1 [compound 5, 4-(3,4-dimethoxyphenyl)-N-methyl-1,3-thiazol-2-amine]",> 32

# Same assay, conditions: read-out: Dividing ELISA EC50 (μM) Mean; ScN2a-cl3 dividing cells; mean of three determinations
row,SMILES,EC50 [µM]
1,"CNc1nc(-c2ccc(OC)c(OC)c2)cs1 [compound 5, 4-(3,4-dimethoxyphenyl)-N-methyl-1,3-thiazol-2-amine]",> 32

# System: N2a-cl3 cells
# Assay: cells
# Settings: Mus musculus, N2a-cl3, read-out: Dividing Calcein EC50 (μM) Mean (n = 3)
row,SMILES,EC50 [µM]
1,"CNc1nc(-c2ccc(OC)c(OC)c2)cs1 [compound 5, 4-(3,4-dimethoxyphenyl)-N-methyl-1,3-thiazol-2-amine]",> 32
